Experimental data: patent publication US20220265657A1, “ADMINISTRATION METHOD AND DOSAGE REGIMEN FOR TREATMENT OF NEURODEGENERATIVE DISEASES USING TRAMETINIB AND MARKERS” (GENUV INC., priority 2019, published 2022)

Key:
[1] = test system: whole brains of normal mice; assay: Bulk RNA-Seq of whole brains of normal mice; format: in vivo; conditions: FC ≥1.3, FDR <0.05
Method: Trametinib treatment: Trametinib (Medchemexpress, Monmouth Junction, N.J.) was micronized and suspended in the vehicle containing 5% mannitol, 1.5% hydroxypropyl methylcellulose and 0.2% sodium lauryl sulfate. For pharmacokinetic analysis, 0.05, 0.2 and 0.8 mg/kg of trametinib were orally administered to 7-week-old normal mice (ICR, n=5 per group) as a single administration. […] For studies on the change in pERK expression in normal mice and whole cell RNA sequencing study, 0.1 mg/kg/day of trametinib (in 4% DMSO+96% corn oil) was orally administered to 6-week old C57BL/6 mice (n=3 per group). Mice were sacrificed after 1, 2, 3, or 4 weeks of administration. 5XFAD mice (male, n=7˜10 per group) were divided into vehicle and trametinib treated groups. 12-month old mice received vehicle or 0.1 mg/kg of trametinib for 1 month by oral gavage once a day (These mice are referred to as “13-month old 5XFAD mice” in the Examples). […] Blood was obtained after completion of treatment.
Whole cell RNA sequencing: RNA was isolated from mice whole brain, and cDNA libraries for RNA sequencing were prepared using the TruSeq Stranded mRNA Prep Kit (Illumina, San Diego, Calif.) according to the manufacturer's guidelines (1). The libraries were sequenced on the Illumina Nextseq500 platform, and the reads were mapped to the reference Mouse mm10 genome using Tophat v2.0.13. […] To define differentially expressed genes (DEG), we set up a stringent statistic cutoff of fold change (FC) of ≥1.3 and a false discovery rate (FDR)<0.05. […] Gene ontology was performed with the Gene Ontology program of the gene ontology consortium. Heatmap analysis was performed by R studio using the DEG list related with synapse, neurogenesis and lysosome.

SH-SY5Y cells = assay: Western blot of SH-SY5Y cell lysates; format: cell-based
Method: Cell culture: SH-SY5Y neuroblastoma cells were cultured at 37° C., 5% CO2., in Dulbecco's Modified Eagle Medium/Ham's F-12 nutrient mixture (DMEM/F12) (Invitrogen, Carlsbad, Calif.) supplemented with 10% heat-inactivated fetal bovine serum containing 100 units/ml penicillin, 100 μg/ml streptomycin. Primary cortical neuron cultures were derived from embryo day 18 (E18) from ICR mice. The dissociated cells were plated on glass cover slips coated with poly-D-lysine in Neurobasal medium supplemented with 2% B27 (Invitrogen), 100 units/ml penicillin, 100 μg/ml streptomycin, and 2 mM L-glutamine. Primary NSCs from normal mice were isolated from the subventricular zone (SVZ) of 8 week-old C57BL/6 mice brain. NSCs from adult Tg2576 mice brain were obtained from Seoul National University Hospital. The neurospheres were cultured as previously described (M. Y. Kim, B. S. Moon, K. Y. Choi, Isolation and maintenance of cortical neural progenitor cells in vitro. Methods Mol Biol 1018, 3-10 (2013)). For neurosphere culture from normal mice, the cells were dissociated from brain tissue and grown in N2 medium in 25 cm^2 flasks (SPL, Gyeonggi-do, Korea) in suspension. bFGF (20 ng/ml, Peprotech, Princeton, N.J.) and human EGF (20 ng/ml, Peprotech) were added to the media to allow the cells to form neurospheres. For analyses, NSCs were cultured as a monolayer. For differentiation of NSCs, the neurospheres were dissociated with TrypLE (Invitrogen), plated on 15 μg/ml poly-L-ornithine-(Sigma-Aldrich, St. Louis, Mo.) and 10 μg/ml fibronectin (Gibco)-coated plates, and cultured in bFGF- and EGF-depleted N2 medium for 2 days. For neurosphere culture from Tg2576 mice, the cells were grown in DMEM/F12 supplemented with B27 supplements in 75 cm^2 flasks (SPL) in suspension. bFGF (10 ng/ml) and human EGF (10 ng/ml) were added to the media to allow the cells to form neurospheres. For inducing differentiation and AP expression, the neurospheres were dissociated with pipetting, plated on 15 μg/ml poly-L-ornithine- and 10 μg/ml fibronectin (Gibco)-coated plates, and cultured in bFGF- and EGF-depleted medium for 2 days.
Lysates were centrifuged at 13,000 rpm for 20 min at 4° C., and the protein content in the supernatant was determined using the Bradford assay (Bio-rad, Hercules, Calif.). For subcellular fractionation, cells were lysed with lysis buffer (250 mM Sucrose, 20 mM HEPES, pH 7.4, 10 mM KCl, 1.5 mM MgCl2, 1 mM EGTA, 1 mM EDTA, 1 mM DTT) containing protease inhibitor for 30 min on ice, followed by centrifugation at 720 g for 5 min at 4° C. Supernatants were centrifuged at 15,000 rpm for 10 min at 4° C., and the resulting supernatant was used as the cytosol fraction. After centrifugation at 720 g for 5 min, pellets were washed with lysis buffer and dissolved in nuclear lysis buffer (50 mM Tris HCl, pH 8.0, 150 mM NaCl, 1% NP40, 0.5% sodium deoxycholate, 0.1% SDS, 10% glycerol) as the nuclear fraction. Protein from each sample was subjected to 8%˜15% SDS-PAGE, and the resolved proteins were transferred to nitrocellulose or polyvinylidene fluoride membrane. The membranes were blocked with 5% nonfat milk powder in Tris-buffered saline/Tween 20 (TBST) for 1 h at room temperature, then incubated with anti-phospho-ERK (Cell signaling), anti-ERK (Cell signaling), anti-LAMP1 (Abcam), anti-LC3 (Cell signaling), anti-cathepsin B (Cell signaling), anti-p62 (Cell signaling), anti-p62 (5114, Cell signaling), anti-phospho-mTOR (5536, Cell signaling), anti-mTOR (2983, Cell signaling), anti-phospho-ULK1 (14202, Cell signaling), anti-ULK1 (8054, Cell signaling), anti-TFEB (852501, Biolegend), and anti-GAPDH (Cell signaling) overnight at 4° C.

[2] = SH-SY5Y cells treated with Aβ1-42
[3] = SH-SY5Y cells, in the presence of Aβ1-42 oligomers

CC(=O)Nc1cccc(-n2c(=O)n(C3CC3)c(=O)c3c(Nc4ccc(I)cc4F)n(C)c(=O)c(C)c32)c1 [trametinib]
number of differentially expressed genes (DEGs) between vehicle and trametinib group ([1]; first week): 500 | number of differentially expressed genes (DEGs) between vehicle and trametinib group ([1]; fourth week): 538 | number of differentially expressed genes (DEGs) between vehicle and trametinib group ([1]; second week): 498 | number of differentially expressed genes (DEGs) between vehicle and trametinib group ([1]; third week): 446 | increase of LC3-II/LC-I level compared to Aβ1-42 treated alone cells (SH-SY5Y cells; [2]): 65% | increase of mature cathepsin B level compared to Aβ1-42 treated alone cells (SH-SY5Y cells; [2]): 44% | nuclear translocation of TFEB (SH-SY5Y cells; [3]): induced nuclear translocation of TFEB | p62 as a marker of autophagic flux (SH-SY5Y cells; [3]): Degradation of p62 | phosphorylation of mTOR and ULK1 on Ser758 (SH-SY5Y cells; [3]): inhibited the phosphorylation
